Results as given in ChEMBL document CHEMBL5252512, “Recent Progress in the Development of HIV-1 Protease Inhibitors for the Treatment of HIV/AIDS” (J Med Chem, 2016).
One block for each molecule: values may come before it.

Legend:
[1] = molecular target: T1, Human immunodeficiency virus type 1 protease (Human immunodeficiency virus 1, UniProt Q72874); assay: Binding affinity to wild-type HIV1 protease expressed in Escherichia coli BL21(DE3) assessed as inhibition constant using (2-aminobenzoyl)Thr-Ile-Nle-(p-nitro)Phe-Gln-Arg peptide as substrate preincubated for 15 mins followed by substrate addition by fluorimeter analysis
[2] = system: Human immunodeficiency virus 1; assay: Antiviral activity against wild type HIV-1 IIIB infected in human MT4 cells assessed as protection against virus-induced cytotoxicity incubated for 5 days by XTT assay; assay type: functional, organism-based; details: Human immunodeficiency virus 1, IIIB, MT4, 120 h
[3] = molecular target: T1, Human immunodeficiency virus type 1 protease; assay: Inhibition of recombinant HIV1 Protease using His-Lys-Ala-Arg-Val-Leu-(pNO2-Phe)-Glu-Ala-Nle-SerNH2 peptide as substrate
[4] = Clearance in rat at 2 mg/kg, iv; assay type: ADME, organism-based; details: in vivo
[5] = Half life in rat at 1 mg/kg, iv; assay type: ADME, organism-based; details: in vivo
[6] = Half life in dog at 1 mg/kg, iv; assay type: ADME, organism-based, Canis lupus familiaris; details: in vivo
[7] = AUC in rat at 10 mg/kg, po; assay type: ADME, organism-based; set-up: dose 10 mg/kg, route po; details: in vivo
[8] = AUC in dog at 4 mg/kg, po; assay type: ADME, organism-based, Canis lupus familiaris; set-up: dose 4 mg/kg, route po; details: in vivo
[9] = Clearance in dog at 1 mg/kg, iv; assay type: ADME, organism-based, Canis lupus familiaris; details: in vivo
[10] = molecular target: T1, Human immunodeficiency virus type 1 protease; assay: Binding affinity to HIV1 protease assessed as inhibition constant
[11] = system: Human immunodeficiency virus 1; assay: Antiviral activity against HIV1 LAI infected in human MT2 cells assessed as inhibition of virus-induced cytopathic effect; assay type: functional, organism-based; details: Human immunodeficiency virus 1, LAI
[12] = molecular target: T1, Human immunodeficiency virus type 1 protease; assay: Inhibition of recombinant HIV1 Protease using Abz-Thr-Ile-Nle-(p-nitro)-Phe-Gln-Arg-NH2 peptide as substrate

- IC50 [3]: 1.7 µM
SMILES: C=C(C)[C@H]1CC[C@]2(C)[C@H]3CC[C@@H]4[C@@]5(C)C[C@H](OC(C)=O)C[C@](C)(C(=O)O)[C@@H]5CC[C@@]4(C)[C@]3(C)CC[C@@H]12

- clearance [4]: 30 mL/min/kg
- half-life [5]: 744 min
- half-life [6]: 546 min
- AUC [7]: 1.35 µM·h
- AUC [8]: 2.48 µM·h
- clearance [9]: 5.3 mL/min/kg
SMILES: CCCN([C@H](CO)CCC[C@H](C)NC(=O)[C@@H](NC(=O)OC)C(c1ccccc1)c1ccccc1)S(=O)(=O)c1ccc(N)cc1

- Ki [10]: 0.11 nM
- IC50 [11]: 3.8 nM
SMILES: COc1ccc(S(=O)(=O)N(CC(C)C)C[C@@H](O)[C@H](Cc2ccccc2)NC(=O)O[C@@H]2C[C@@H]3OCO[C@@H]3C2)cc1

- clearance [4]: 17.4 mL/min/kg
- half-life [5]: 203 min
- half-life [6]: 312 min
- AUC [7]: 0.56 µM·h
- AUC [8]: 3.62 µM·h
- clearance [9]: 4.7 mL/min/kg
SMILES: CCCN([C@H](CO)CCC[C@@H](NC(=O)[C@@H](NC(=O)OC)C(c1ccccc1)c1ccccc1)C(F)(F)F)S(=O)(=O)c1ccc(N)cc1

Continued, molecule first:

SMILES: CCOP(=O)(COc1ccc(C[C@H](NC(=O)O[C@H]2CO[C@H]3OCC[C@H]32)[C@H](O)CN(CC(C)C)S(=O)(=O)c2ccc(OC)cc2)cc1)OCC
- Ki [1]: 8.1 pM
- EC50 [2]: 3.5 nM

SMILES: Cc1cccc(C)c1OCC(=O)N(Cc1ccccc1)C[C@@H]1CNC[C@H]1CN(CC(C)C)S(=O)(=O)c1ccccc1
- IC50 [12]: 2200 nM

SMILES: C=C(C)[C@@H]1CC[C@@]2(C)[C@@H]1C1CC[C@@H]3[C@@](C)(CC(=O)O)[C@H](C(C)(C)C(=O)O)CC[C@@]3(C)[C@]1(C)C[C@@H]2O (some centres undefined)
- IC50 [3]: 17.8 µM
